Like-named read-outs stand apart in the source and are kept apart here.
What was measured:
Phytophthora infestans = assay: whole plant or invertebrate; format: in vivo; conditions: in Solanum lycopersicum, 168 h, read-out: Tomato Late Blight % Control
Pythium ultimum = assay: Mycelia Inhibition; format: cell-based; conditions: mycelial inhibition, 25° C., 24 hours
Rhizoctonia solani = assay: Mycelia Inhibition; format: cell-based; conditions: mycelial inhibition, 25° C., 24 hours
Alternaria solani = assay: Tomato Early Blight; format: in vivo; conditions: 288 h, read-out: Tomato Early blight % Control
Aspergillus niger = assay: Mycelia Inhibition; format: cell-based; conditions: mycelial inhibition, 25° C., 24 hours
Fusarium moniliforme = assay: Mycelia Inhibition; format: cell-based; conditions: mycelial inhibition, 25° C., 24 hours
Botrytis cinerea = Botrytis cinerea control (detached horsebean leaves); format: in vivo; conditions: 3 to 5 days
Method: Compounds of the invention were tested for Botrytis cinerea control using detached, well-developed primary leaves of a 4-6 week old horsebean plant. […] The leaves were allowed to dry while the filter paper was kept moist by adding water as required. The treated leaves were then inoculated with the spores of Botrytis cinerea fungus grown on potato. The plate was covered after inoculation and kept at 23.5° C. The filter-paper lining of the plate was kept saturated with water throughout the test. The rate of disease incidence was determined in 3 to 5 days, when the disease symptoms were fully evident on non-treated check leaves. […]

Erysiphe polygoni = assay: Powdery Mildew (bean seedlings); format: in vivo; conditions: 240 h, 250 ppm spray on bean seedlings, about 10 days, relative to untreated check plants
Description: The powdery mildew test was made using bean seedlings (var. Bountiful) with well-developed primary leaves. The pathogen was Erysiphe polygoni. The bean seedlings were sprayed with a 250 ppm solution of the test compound in an acetone-water mixture containing a nonionic emulsifier. The treated plants were inoculated one day after spray application of the test compound with the pathogen. […] The rate of infection on the leaves was made after about 10 days. The percent disease control provided by a given test compound was based on the disease reduction relative to untreated check plants.

[1] = test system: Crabgrass (Digitaria sanguinalis); assay: Post-emergent herbicidal test; format: in vivo; conditions: 0-to-100 scale
[2] = test system: Mustard (Brassica arvensis); assay: Post-emergent herbicidal test; format: in vivo; conditions: 0-to-100 scale
[3] = test system: Watergrass (Echinochloa crusgalli); assay: Post-emergent herbicidal test; format: in vivo; conditions: 0-to-100 scale
[4] = test system: Lambsquarter (Chenopodium album); assay: Post-emergent herbicidal test; format: in vivo; conditions: 0-to-100 scale
Wild Oats (Avena fatua) [5] = assay: Post-emergent herbicidal test; format: in vivo; conditions: 0-to-100 scale
[6] = test system: Crabgrass (Digitaria sanguinalis); assay: Pre-Emergent herbicidal test; format: in vivo; conditions: 33 micrograms/cm^2, 3 weeks, 0-to-100 scale, 100 = complete kill
Method: (§1) Pre-emergent herbicidal tests on representative compounds of the invention were made using the following method:
(§2) An acetone solution of the test compound was prepared by mixing 750 mg of the compound, 220 mg of a nonionic surfactant and 25 ml of acetone. This solution was added to approximately 125 ml of water containing 156 mg of surfactant.
(§3) Seeds of the test vegetation were planted in a pot of soil and the test solution was sprayed uniformly onto the soil surface at a dose of 33 micrograms/cm^2. The pot was watered and placed in a greenhouse. […] At the end of this period, the herbicidal effectiveness of the compound was rated based on the physiological observations. A 0-to-100 scale was used, 0 representing no phytotoxicity, 100 representing complete kill.

[7] = test system: Lambsquarter (Chenopodium album); assay: Pre-Emergent herbicidal test; format: in vivo; conditions: 33 micrograms/cm^2, 3 weeks, 0-to-100 scale, 100 = complete kill
Method: as §1, §2, §3

Wild Oats (Avena fatua) [8] = assay: Pre-Emergent herbicidal test; format: in vivo; conditions: 33 micrograms/cm^2, 3 weeks, 0-to-100 scale, 100 = complete kill
Method: as §1, §2, §3

[9] = test system: Mustard (Brassica arvensis); assay: Pre-Emergent herbicidal test; format: in vivo; conditions: 33 micrograms/cm^2, 3 weeks, 0-to-100 scale, 100 = complete kill
Method: as §1, §2, §3

[10] = test system: Watergrass (Echinochloa crusgalli); assay: Pre-Emergent herbicidal test; format: in vivo; conditions: 33 micrograms/cm^2, 3 weeks, 0-to-100 scale, 100 = complete kill
Method: as §1, §2, §3

[11] = 250 ppm spray, inoculated one day later, based on untreated check plants

Q: What does the source list for Oc1ccccc1C1=NC2=S(O1)SN=C2Cl (stereo not shown) [Compound 13]?
A: pest or weed control at 250 ppm (Phytophthora infestans): 27%; Pythium ultimum, micrograms/cm^2 for 99% control of the fungus (Pythium ultimum): > 1.7 micrograms/cm^2; Rhizoctonia solani, micrograms/cm^2 for 99% control of the fungus (Rhizoctonia solani): 0.5 micrograms/cm^2; pest or weed control at 250 ppm (Alternaria solani; [11]): 51%; Aspergillus niger, micrograms/cm^2 for 99% control of the fungus (Aspergillus niger): 0.98 micrograms/cm^2; Fusarium moniliforme, micrograms/cm^2 for 99% control of the fungus (Fusarium moniliforme): > 1.7 micrograms/cm^2

Q: How did the pest or weed control at 250 ppm (Alternaria solani; [11]) turn out when ClC1=NSS2=C1N=C(C(Cl)(Cl)Cl)O2 (stereo not shown) [Compound 14] was run?
A: The pest or weed control at 250 ppm was 21%.

Q: How did the “Botrytis Cinerea, micrograms/cm^2 for 99% control of the fungus” value (Botrytis cinerea) turn out when ClC1=NSS2=C1N=C(c1c(Cl)cccc1Cl)O2 (stereo not shown) [Compound 15] was run?
A: Its value is 1.6 micrograms/cm^2.

Q: Which pest or weed control at 250 ppm (Erysiphe polygoni) does the source give for ClC1=NSS2=C1N=C(c1cc(Cl)cc(Cl)c1)O2 (stereo not shown) [Compound 16] here?
A: Its pest or weed control at 250 ppm is 23%.

Q: O=[N+]([O-])c1ccc(Cl)cc1C1=NC2=S(O1)SN=C2Cl (stereo not shown) [Compound 17] was tested. Which pest or weed control at 250 ppm (Phytophthora infestans) did it give?
A: Its pest or weed control at 250 ppm is 80%.

Q: Which results are given for N#CSCC1=NC2=S(O1)SN=C2Cl (stereo not shown) [Compound 20, 2-thiocyanatomethyl-3-oxa-3aλ^4,4-dithia-6-chloro-1,5-diazapentalene]?
A: Rhizoctonia solani, micrograms/cm^2 for 99% control of the fungus (Rhizoctonia solani): 0.33 micrograms/cm^2; Botrytis Cinerea, micrograms/cm^2 for 99% control of the fungus (Botrytis cinerea): 0.88 micrograms/cm^2; Aspergillus niger, micrograms/cm^2 for 99% control of the fungus (Aspergillus niger): 0.6 micrograms/cm^2; Fusarium moniliforme, micrograms/cm^2 for 99% control of the fungus (Fusarium moniliforme): > 1.7 micrograms/cm^2

Q: Which results are given for ClC1=NSS2=C1N=C(C1CC1)O2 (stereo not shown) [Compound 21, 2-cyclopropyl-3-oxa-3aλ^4,4-dithia-6-chloro-1,5-diazapentalene]?
A: pest or weed control at 250 ppm (Phytophthora infestans): 97%; pest or weed control at 250 ppm (Alternaria solani; [11]): 23%

Q: N#CSc1cccc(C2=NC3=S(O2)SN=C3Cl)c1 (stereo not shown) [Compound 22] was tested. Which pest or weed control at 250 ppm (Erysiphe polygoni) did it give?
A: Its pest or weed control at 250 ppm is 35%.

Q: Which results are given for ClC1=NSS2=C1N=C(C(Cl)=C(Cl)Cl)O2 (stereo not shown) [Compound 23, 2-trichlorovinyl-3-oxa-3aλ^4,4-dithia-6-chloro-1,5-diazapentalene]?
A: pest or weed control at 250 ppm (Phytophthora infestans): 98%; pest or weed control at 250 ppm (Erysiphe polygoni): 95%

Q: Which results are given for ClC1=NSS2=C1N=C(COc1ccc(Cl)cc1)O2 (stereo not shown) [Compound 25]?
A: Herbicidal Effectiveness - Post, C [1]: 0; Herbicidal Effectiveness - Post, M [2]: 85; Herbicidal Effectiveness - Post, W [3]: 0; pest or weed control at 250 ppm (Alternaria solani): 88%; Herbicidal Effectiveness - Post, L [4]: 85; Herbicidal Effectiveness - Post, O (Wild Oats (Avena fatua) [5]): 0; Herbicidal Effectiveness - Pre, C [6]: 70; Herbicidal Effectiveness - Pre, L [7]: 90; Herbicidal Effectiveness - Pre, O (Wild Oats (Avena fatua) [8]): 0; Herbicidal Effectiveness - Pre, M [9]: 95; Herbicidal Effectiveness - Pre, W [10]: 20; pest or weed control at 250 ppm (Erysiphe polygoni): 29%

Q: With ClC1=NSS2=C1N=C(COc1cc(Cl)ccc1Cl)O2 (stereo not shown) [Compound 27] as the molecule, how does the “Herbicidal Effectiveness - Post, C” value [1] read?
A: Its value is 90.

Q: What about the “Herbicidal Effectiveness - Post, M” value [2] of the same molecule?
A: Its value is 80.

Q: What about the “Herbicidal Effectiveness - Post, W” value [3] of the same molecule?
A: The value was 0.

Q: What about the “Herbicidal Effectiveness - Post, L” value [4] of the same molecule?
A: Its value is 90.

Q: And the “Herbicidal Effectiveness - Post, O” value (Wild Oats (Avena fatua) [5])?
A: The value was 0.

Q: What about the “Herbicidal Effectiveness - Pre, C” value [6] of the same molecule?
A: The value was 55.

Q: And the “Herbicidal Effectiveness - Pre, L” value [7]?
A: Its value is 82.

Q: And the “Herbicidal Effectiveness - Pre, O” value (Wild Oats (Avena fatua) [8])?
A: The value was 0.

Q: What about the “Herbicidal Effectiveness - Pre, M” value [9] of the same molecule?
A: The value was 87.

Q: And the “Herbicidal Effectiveness - Pre, W” value [10]?
A: Its value is 55.

Q: With ClC1=NSS2=C1N=C(c1ccccc1I)O2 (stereo not shown) [Compound 28] as the molecule, how does the pest or weed control at 250 ppm (Phytophthora infestans) read?
A: The pest or weed control at 250 ppm was 75%.

Q: What about the pest or weed control at 250 ppm (Erysiphe polygoni) of the same molecule?
A: The pest or weed control at 250 ppm was 69%.

Q: ClC1=NSS2=C1N=C(COc1ccc(Cl)cc1Cl)O2 (stereo not shown) [Compound 29] was tested. Which “Herbicidal Effectiveness - Post, C” value [1] did it give?
A: The value was 20.

Q: What about the “Herbicidal Effectiveness - Post, M” value [2] of the same molecule?
A: Its value is 100.

Q: What about the “Herbicidal Effectiveness - Post, W” value [3] of the same molecule?
A: Its value is 20.

Q: What about the pest or weed control at 250 ppm (Alternaria solani; [11]) of the same molecule?
A: The pest or weed control at 250 ppm was 69%.

Q: And the “Herbicidal Effectiveness - Post, L” value [4]?
A: Its value is 97.

Q: And the “Herbicidal Effectiveness - Post, O” value (Wild Oats (Avena fatua) [5])?
A: Its value is 20.

Q: And the “Herbicidal Effectiveness - Pre, C” value [6]?
A: The value was 97.

Q: And the “Herbicidal Effectiveness - Pre, L” value [7]?
A: Its value is 100.

Q: What about the “Herbicidal Effectiveness - Pre, O” value (Wild Oats (Avena fatua) [8]) of the same molecule?
A: The value was 0.

Q: What about the “Herbicidal Effectiveness - Pre, M” value [9] of the same molecule?
A: The value was 100.

Q: What about the “Herbicidal Effectiveness - Pre, W” value [10] of the same molecule?
A: The value was 95.

Q: What about the pest or weed control at 250 ppm (Erysiphe polygoni) of the same molecule?
A: The pest or weed control at 250 ppm was 37%.

— patent publication US4179441A, “Fungidal and herbicidal 2-substituted-3-oxa-3aλ^4, 4-dithia-6-halo-1,5-diazapentalene” (Chevron Research Company, priority 1977, dated 1979)
